Source: patent publication US11173124B2, “Oral delivery of GLP-1 peptide analogs” (MEDIMMUNE LIMITED, priority 2017, dated 2021)
“And” between values parts separate entries of the source, which are not always exact repeats. Identical values can stand only once. Like-named read-outs stand apart in the source and are kept apart here. Starred links: 1 amine or outer side, 2 acyl side, 3 side chain; linkers in the order of their positions; H or OH if unused. Non-standard residues stand in square brackets, D forms with d. Residues, ends and D or L forms follow the SMILES beside them. Groups on a side chain read outwards from the residue. *: point of attachment. γGlu = O=C(O)[C@H](CCC(=O)[*:2])N[*:1]; αMeF = C[C@](N)(Cc1ccccc1)C(=O)O; αMeK = C[C@](N)(CCCCN)C(=O)O; Lauroyl = CCCCCCCCCCCC(=O)*; αMeS = C[C@](N)(CO)C(=O)O; AEEA = NCCOCCOCC(=O)O; Aib = CC(C)(N)C(=O)O

How the values were obtained:
Assay type in all cases: in vivo
[1] = Canine study, Na CDC:PG ratios, PE amount and MEDI7219 dose in enterically coated tablets (Example 22, Table 29); details: Beagle dogs, oral enterically coated tablet
Source text: The following materials and methods were used for quantitative measurements of GLP-1 peptide analogs in plasma (e.g., rat or dog plasma) in the Examples below. These methods used a SCIEX 6600 TripleTOF mass spectrometer coupled with a Shimadzu ultra-high performance liquid chromatography (UHPLC). The specificity of the method was ensured by the retention time, the selected mass for Single-Reaction-Monitoring (SRM) mode, and the selected fragment mass in MS/MS (MS^2) mode.
The plasma extraction procedure used the following steps: • Samples, standards, and quality controls were incubated until they reached room temperature. They were then incubated at 60° C. for 2 minutes and cooled down to room temperature, vortexed, and spun down. • 70 μL of samples, standards, or quality controls were transferred into a 1 mL 96-well plate. • In each well, 420 uL of Precipitation Solution was added. The plate was sealed and shook for 10 minutes on a plate shaker at 600 rpm. • The plate was centrifuged at 18G, 2500 RFC, 20° C. for 10 minutes. • The plate was carefully removed, and the upper clear supernatant was extracted with a 200 uL multichannel pipette into a new 96-well protein lobind plate. The supernatant was extracted twice for each well, and the supernatants were combined. • The Plate was placed in TurboVap and the extracted supernatant was dried completely with heated (65° C.) Nitrogen gas at 60 Fahrenheit (Fh). • After the plate was completely dry, the plates were covered and incubated at room temperature for at least 30 minutes until the plate returned back to ambient temperature. • 150 μL of Reconstitution solution was added to each well. The plate was covered with a pierceable place seal and shaken at 600 rpm for 10 minutes. • The samples were submitted to the LC-MS/MS on the same day of Preparation
Quantification of the data obtained using the high resolution SCIEX 6600 instrument was then performed as follows: • For the quantification, extracted ion chromatograms (XIC) using 0.2 Da m/z extraction window centered on the accurate mass of each fragment ion were generated. Accurate mass was calculated from the structure of the compound. […] Concentrations of the target analyte in unknown samples were obtained by regression analysis using linear fits of peak areas vs. analyte concentration, weighted 1/(concentration). • The quality of the assay was controlled by the quality control samples. • Either Experiment 1 or Experiment 2 could be used for the quantification of the GLP-1 peptide analogs in high resolution mode.

[2] = Rat intraduodenal study, MEDI7219 with new permeation enhancer formulations (Example 7); details: for AUC(0-t) / Cmax / Tmax / half-life: plasma; for half-life: read-out: T ½ (converted)
Description: The following rat ID study compared oral bioavailability of the MEDI7219 (SEQ ID NO:2) peptide formulated with new permeation enhancer formulations after intraduodenal administration in rats. All test articles were prepared as solutions in 50 mM Tris, 150 mM mannitol, 0.02% polysorbate 80, pH 8.5. Table 8 gives the formulation and pharmacokinetic analysis details.

[3] = Canine study, MEDI7219 enterically coated tablets with or without Tris base, fresh or stressed (Example 19, Table 26); details: beagle, dog, plasma, po, Beagle dogs
Source text: The objective was to study influence of MEDI7219 (SEQ ID NO:2) enterically coated tablet formulation composition with or without Tris base on bioperformance Study design and outcomes are provided in Table 26.

[4] = iv, 0.01 mg/kg, IV, 0.01 mg/kg, Group 1 control, 0.01 mg/mL peptide
[5] = other: intraduodenal (ID), 1 mg/kg, ID, 1 mg/kg, Group 2: 0.5 mg/mL peptide, 25 mg/mL Na CDC, 12.5 mg/mL Ethyl Gallate
[6] = other: intraduodenal (ID), 1 mg/kg, ID, 1 mg/kg, Group 3: 0.5 mg/mL peptide, 12.5 mg/mL Na CDC, 25 mg/mL Ethyl Gallate
[7] = other: intraduodenal (ID), 1 mg/kg, ID, 1 mg/kg, Group 4: 0.5 mg/mL peptide, 25 mg/mL Na CDC, 12.5 mg/mL Octyl Gallate
[8] = other: intraduodenal (ID), 1 mg/kg, ID, 1 mg/kg, Group 5: 0.5 mg/mL peptide, 25 mg/mL Chenodeoxycholic acid, 12.5 mg/mL PG
[9] = other: intraduodenal (ID), 1 mg/kg, ID, 1 mg/kg, Group 8: 0.5 mg/mL peptide, 25 mg/mL Na CDC, 12.5 mg/mL PG

F ([1]; 150 mg Na CDC and no PG): ~2% | F ([1]; 150 mg PE, 1:2 Na CDC:PG ratio): ~6% | F ([1]; 150 mg PE, 2:1 Na CDC:PG ratio): ~7% | F ([1]; 6.5:1 Na CDC:PG ratio (130 mg Na CDC, 20 mg PG)): ~4% | F ([2]; ID, 1 mg/kg, Group 2: 0.5 mg/mL peptide, 25 mg/mL Na CDC, 12.5 mg/mL Ethyl Gallate): 1.11% | F ([2]; ID, 1 mg/kg, Group 3: 0.5 mg/mL peptide, 12.5 mg/mL Na CDC, 25 mg/mL Ethyl Gallate): 2.14% | F ([2]; ID, 1 mg/kg, Group 4: 0.5 mg/mL peptide, 25 mg/mL Na CDC, 12.5 mg/mL Octyl Gallate): 1.12% | F ([2]; ID, 1 mg/kg, Group 5: 0.5 mg/mL peptide, 25 mg/mL Chenodeoxycholic acid, 12.5 mg/mL PG, 1 mg/kg): 1.96% and 1.92% | F ([2]; ID, 1 mg/kg, Group 6: 0.5 mg/mL peptide, 25 mg/mL Ursodeoxycholic acid, 12.5 mg/mL PG): 0% | F ([2]; ID, 1 mg/kg, Group 7: 0.5 mg/mL peptide, 25 mg/mL Na CDC, 12.5 mg/mL PG, 25 mg/mL N-Acetyl Cysteine): 0% | F ([2]; ID, 1 mg/kg, Group 8: 0.5 mg/mL peptide, 25 mg/mL Na CDC, 12.5 mg/mL PG): 1.45% | F ([2]; IV, 0.01 mg/kg, Group 1 control, 0.01 mg/mL peptide): 100% | AUC(0-t) [2, 4]: 1030 ng·h/mL | Cmax [2, 4]: 187 ng/mL | Tmax [2, 4]: 0.083 h | half-life [2, 4]: 8.9 h | AUC(0-t) [2, 5]: 1110 ng·h/mL | Cmax [2, 5]: 175 ng/mL | Tmax [2, 5]: 0.25 h | half-life [2, 5]: 10.3 h | AUC(0-t) [2, 6]: 1970 ng·h/mL | Cmax [2, 6]: 282 ng/mL | Tmax [2, 6]: 0.25 h | half-life [2, 6]: 7.96 h | AUC(0-t) [2, 7]: 1170 ng·h/mL | Cmax [2, 7]: 240 ng/mL | Tmax [2, 7]: 0.25 h | half-life [2, 7]: 7.97 h | AUC(0-t) [2, 8]: 1890 ng·h/mL | Cmax [2, 8]: 546 ng/mL | Tmax [2, 8]: 0.25 h | half-life [2, 8]: 8.6 h | AUC(0-t) [2, 9]: 1540 ng·h/mL | Cmax [2, 9]: 140 ng/mL | Tmax [2, 9]: 2 h | half-life [2, 9]: 8.83 h | bioavailability ([3]; 3 mg/dog, freshly prepared enterically coated no Tris tablet): 5.2% | bioavailability ([3]; 3 mg/dog, freshly prepared enterically coated tablets with Tris): 12.4% | bioavailability ([3]; stressed enterically coated tablet with Tris): 3.8% | bioavailability ([3]; stressed enterically coated tablet without Tris): 9.6%
SMILES: CCCCCCCCCCCC(=O)N[C@@H](CCC(=O)NCCOCCOCC(=O)NCCOCCOCC(=O)NCCCC[C@H](NC(=O)[C@H](C)NC(=O)[C@@H](NC(=O)[C@](C)(Cc1ccccc1)NC(=O)[C@H](CCC(=O)O)NC(=O)[C@](C)(CCCCN)NC(=O)[C@H](C)NC(=O)[C@H](C)NC(=O)[C@H](CCC(=O)O)NC(=O)CNC(=O)[C@H](CCC(=O)O)NC(=O)[C@H](CC(C)C)NC(=O)[C@H](CCCCNC(=O)COCCOCCNC(=O)COCCOCCNC(=O)CC[C@H](NC(=O)CCCCCCCCCCC)C(=O)O)NC(=O)[C@H](CO)NC(=O)[C@](C)(CO)NC(=O)[C@@H](NC(=O)[C@H](CC(=O)O)NC(=O)[C@H](CO)NC(=O)[C@@H](NC(=O)[C@](C)(Cc1ccccc1)NC(=O)[C@H](CO)NC(=O)CNC(=O)[C@H](CCC(=O)O)NC(=O)C(C)(C)NC(=O)[C@@H](N)Cc1c[nH]cn1)[C@@H](C)O)C(C)C)[C@@H](C)CC)C(=O)N[C@H](C(=O)N[C@H](C(=O)N[C@@H](CCC(=O)O)C(=O)NCC(=O)NCC(N)=O)C(C)C)C(C)C)C(=O)O [MEDI7219, Free-H-[AIB]-EGS-[αMePhe]-TSDV-[αMeSer]-SK[(PEG2)2-γE-Lauroyl]-LEGEAA-[αMeLys]-E-[αMePhe]-IAK[(PEG2)2-γE-Lauroyl]-VVEGG-amide] (H-H[Aib]EGS[αMeF]TSDV[αMeS]SK([AEEA-AEEA-γGlu-Lauroyl])LEGEAA[αMeK]E[αMeF]IAK([AEEA-AEEA-γGlu-Lauroyl])VVEGG-NH2)
